From ChEMBL document CHEMBL5725267, “Enhancer of zeste homolog 2 inhibitors” (2016)

assay: Scintillation Proximity Assay (SPA): Protocol 2: Compounds contained herein were evaluated for their ability to inhibit the methyltransferase activity of EZH2 within the PRC2 complex. Human PRC2 complex was prepared by co-expressing each of the 5 member proteins (FLAG-EZH2, EED, SUZ12, RbAp48, AEBP2) in Sf9 cells followed by co-purification. Enzyme activity was measured in a scintillation proximity assay (SPA) where a tritiated methyl group is transferred from 3H-SAM to a lysine residue on a biotinylated, unmethylated peptide substrate derived from histone H3. The peptides were captured on streptavidin-coated SPA beads and the resulting signal was read on a ViewLux plate reader.Part A. Compound Preparation 4. Prepare 10 mM stock of compounds from solid in 100% DMSO. 5. Set up an 11-point serial dilution (1:4 dilution, top concentration 10 mM) in 100% DMSO for each test compound in a 384 well plate leaving columns 6 and 18 for DMSO controls. 6. Dispense 10 nL of compound from the dilution plate into reaction plates (Corning, 384-well polystyrene NBS, Cat#3673). Percent inhibition was calculated relative to the DMSO control for each compound concentration and the resulting values were fit using standard IC50 fitting parameters within the ABASE data fitting software package.; type: biochemical

| IC50 | SMILES |
| --- | --- |
| 1 µM | C/C=C(\CCN1CCOCC1)c1scc(C(=O)NCc2c(C)cc(C)[nH]c2=O)c1C |
| 0.2 µM | C/C=C(\CCCN1CCC(N(C)C)CC1)c1scc(C(=O)NCc2c(C)cc(C)[nH]c2=O)c1C |
| 0.251 µM | C/C=C(\CCCN1CCN(C)CC1)c1scc(C(=O)NCc2c(C)cc(C)[nH]c2=O)c1C |
| 0.1 µM | C/C=C(/c1scc(C(=O)NCc2c(C)cc(C)[nH]c2=O)c1C)[C@H]1CC[C@H](NC(=O)OC(C)(C)C)CC1 |
